In the supplement of paper PMC10307832:

Tests used:
Carfilzomib + Dasatinib = compound: CC(C)C[C@H](NC(=O)[C@H](CCc1ccccc1)NC(=O)CN1CCOCC1)C(=O)N[C@@H](Cc1ccccc1)C(=O)N[C@@H](CC(C)C)C(=O)[C@@]1(C)CO1 [Carfilzomib] + Cc1nc(Nc2ncc(C(=O)Nc3c(C)cccc3Cl)s2)cc(N2CCN(CCO)CC2)n1 [Dasatinib] (partner 0.075 µM); experiment: relative viability (nuclei count vs DMSO), 5 days (fraction); higher = more cells survive
Procedure, shortened: (§1)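 Relative viability divides the nuclei count in treated wells by that in vehicle wells. Lung cancer cell lines were seeded in 1536-well plates, dosed by pin tool the next day, and fixed and stained after 5 days in one step with final 0.05% Triton X-100, 1% formaldehyde and 1 ug/ml Hoechst. Dosing was a single drug or a fixed anchor-drug dose plus five library-drug doses (not always all listed) in √10 steps, and values are medians of duplicate plates imaged at 4×.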

Crizotinib + Palbociclib = compound: C[C@@H](Oc1cc(-c2cnn(C3CCNCC3)c2)cnc1N)c1c(Cl)ccc(F)c1Cl [Crizotinib] + CC(=O)c1c(C)c2cnc(Nc3ccc(N4CCNCC4)cn3)nc2n(C2CCCC2)c1=O [Palbociclib] (partner 0.5 µM); experiment: as above
Procedure, shortened: as §1

Cell Line	relative viability (Carfilzomib + Dasatinib; first compound 0.001 µM)	relative viability (Carfilzomib + Dasatinib; first compound 0.003162 µM)	relative viability (Carfilzomib + Dasatinib; first compound 0.01 µM)	relative viability (Carfilzomib + Dasatinib; first compound 0.03162 µM)	relative viability (Carfilzomib + Dasatinib; first compound 0.1 µM)	relative viability (Crizotinib + Palbociclib; first compound 0.01 µM)	relative viability (Crizotinib + Palbociclib; first compound 0.03162 µM)	relative viability (Crizotinib + Palbociclib; first compound 0.1 µM)	relative viability (Crizotinib + Palbociclib; first compound 0.3162 µM)	relative viability (Crizotinib + Palbociclib; first compound 1 µM)
201T	0.51	0.61	0.643	0.593	0.522	0.336	0.375	0.329	0.384	0.344
A-427	0.776	0.853	0.597	0.0935	0.107	0.486	0.53	0.496	–	0.558
ABC-1	0.521	0.504	0.196	0.172	0.324	0.811	0.838	0.517	–	0.711
BEN	0.294	0.328	0.299	0.298	0.203	0.528	0.504	0.464	0.47	0.489
CAL-12T	0.321	0.484	0.509	0.174	0.108	0.369	0.577	0.341	0.295	0.369
COR-L23	0.478	0.523	0.425	0.0606	0.0642	0.289	0.269	0.298	0.256	0.328
COR-L 105	0.409	0.393	0.319	0.235	0.167	0.4	0.427	0.397	0.388	0.409
ChaGo-K-1	0.546	0.591	0.585	0.335	0.203	0.917	0.92	0.971	0.908	0.98
EKVX	0.49	0.342	0.597	0.478	0.214	0.312	0.411	0.38	0.392	0.423
EMC-BAC-2	0.327	0.363	0.35	0.256	0.256	0.507	0.509	0.519	–	0.479
EPLC-272H	0.379	0.407	0.215	0.0812	0.0631	0.334	0.298	0.31	–	0.309
H3255	0.356	0.431	0.486	0.339	0.355	0.342	0.331	0.327	0.28	0.325
HARA	0.324	0.312	0.32	0.0493	0.0578	0.273	0.295	0.239	0.249	0.207
HCC-15	0.609	0.654	0.673	0.3	0.0867	0.665	0.719	0.7	0.655	0.627
HCC-44	–	–	–	–	–	0.939	0.964	1.01	0.94	0.969
HCC-78	0.228	0.459	0.323	0.435	0.2	0.431	0.537	0.545	–	0.513
HCC-366	0.624	0.727	0.629	0.705	0.173	0.381	0.429	0.347	–	0.449

Cell Line	relative viability (Carfilzomib + Dasatinib; first compound 0.001 µM)	relative viability (Carfilzomib + Dasatinib; first compound 0.003162 µM)	relative viability (Carfilzomib + Dasatinib; first compound 0.01 µM)	relative viability (Carfilzomib + Dasatinib; first compound 0.03162 µM)	relative viability (Carfilzomib + Dasatinib; first compound 0.1 µM)	relative viability (Crizotinib + Palbociclib; first compound 0.01 µM)	relative viability (Crizotinib + Palbociclib; first compound 0.03162 µM)	relative viability (Crizotinib + Palbociclib; first compound 0.1 µM)	relative viability (Crizotinib + Palbociclib; first compound 0.3162 µM)	relative viability (Crizotinib + Palbociclib; first compound 1 µM)
HCC-827	0.3	0.306	0.239	0.374	0.273	0.455	0.492	0.498	0.463	0.413
HOP-62	0.618	0.655	0.499	0.0996	0.0979	0.444	0.416	0.412	0.396	0.495
LC-2-ad	0.475	0.711	0.796	0.475	0.256	0.525	0.504	0.53	–	0.472
LCLC-97TM1	0.776	0.89	0.837	0.774	0.397	0.233	0.25	0.197	0.212	0.205
LCLC-103H	0.343	0.503	0.518	0.362	0.299	0.469	0.435	0.438	0.471	0.508
LK-2	0.299	0.349	0.229	0.154	0.17	0.65	0.691	0.596	0.609	0.534
LOU-NH91	0.523	0.618	0.564	0.273	0.281	0.583	0.534	0.516	0.533	0.5
LU99A	0.533	0.688	0.512	0.278	0.152	0.411	0.407	0.384	0.42	0.357
LXF-289	0.151	0.312	0.192	0.0373	0.0553	0.583	0.591	0.626	0.569	0.582
NCI-H23	0.811	0.748	0.845	0.158	0.125	0.343	0.504	0.53	–	0.536
NCI-H322M	0.272	0.264	0.255	0.271	0.232	–	0.486	0.465	0.53	0.447
NCI-H358	0.171	0.152	0.2	0.0675	0.0836	0.127	0.14	0.184	0.127	0.126
NCI-H441	0.66	0.629	0.376	0.156	0.176	0.207	0.267	0.212	0.188	0.2
NCI-H460	0.539	0.529	0.568	0.538	0.0417	0.213	0.194	0.175	0.166	0.177
NCI-H520	0.204	0.17	0.168	0.188	0.213	0.24	0.24	0.205	0.204	0.195
NCI-H522	0.872	0.946	0.885	0.398	0.433	0.998	1.18	0.827	1.04	1.02
NCI-H596	0.607	0.583	0.52	0.381	0.174	–	–	–	–	–
